Source: patent US20070026431A1, “Modulation of MAPK-mediated phosphorylation and/or FBXW8-mediated ubiquitinylation of cyclin D1 in modulation of cellular proliferation” (priority 2005, published 2007)

Columns and labels:
Assay type in all cases: cell-based, human
[1] = tested on: cyclin D1 protein (Thr286 phosphorylation); assay: Western blot of cyclin D1 and p-Thr286 cyclin D1 in HA-CD1 SW480 cells treated with kinase inhibitors; details: HA-WT CD1 SW480 cells; 24 hours of treatment
Description: Immunoblot analysis was performed. […] Asterisks indicate endogenous cyclin D1 expression. Panel B: Western blot analysis with fractionated nuclear proteins. […] Cell-cycle distribution was shown as bar graphs. Nuclear proteins were fractionated at indicated time points. […] Levels of total and phosphorylated cyclin D1 were determined.
(§1) Immunoblotting Analysis. […] SDS-PAGE was described previously (Tetsu and McCormick, 2003).
To identify the kinase responsible for cyclin D1 Thr286 phosphorylation, small molecule inhibitors of GSK3β, CDK4, and MEK were used to determine whether they were able to alter the phosphorylation and stability of ectopically expressed WT cyclin D1 protein in cultured cells (FIG. 5, Panels C and D). Ectopically expressed WT cyclin D1 protein was used to assess the stability of cyclin D1 protein. The endogenous expression was not assessed because transcription of cyclin D1 is regulated by the Ras/MAPK signaling. Therefore, endogenous expression of cyclin D1 is unable to be detected following inhibition of MAPK activities through the MEK/MAPK inhibitors or serum starvation (Tetsu et al., 2003. Cancer Cell. 3, 233-45).

[2] = tested on: cyclin D1 protein (Thr286 phosphorylation); assay: Western blot of total cyclin D1 and pThr286 in HCT 116 cells after U0126 or GSK3 inhibitor; details: cycling HCT 116; GSK3α/β inhibitor 24 hours
Description: FIG. 11 illustrates that ERK/MAPK is identified as the major kinase that is responsible for the stability of cyclin D1 protein. Panels A-F: Pulse-chase analysis of cyclin D1 protein in HCT 116 cells after exposure to the MEK inhibitor U0126 (A-C) or the GSK3 inhibitor BIO (D-F). Exponentially growing HCT 116 cells were treated with either DMSO or 10 μM of U0126 (A-C) for 30 minutes, or DMSO or 5 μM of BIO (D-F) for 24 hours. Panels A and D: Cells were pulse-labeled with ^35S-methionine for 1 hour. Subsequently these cells were chased with cold methionine for the indicated times, and then lysed respectively. Cyclin D1 was immunoprecipitated and then analyzed with SDS-PAGE. Autoradiography was performed. Levels of metabolically labeled-cyclin D1 were estimated by quantitative scanning using the Quantity One (Bio-Rad) software and blotted on the graph to determine the half-life of cyclin D1. Panels B and E: Western blot analysis. The membrane was blotted with a cyclin D1 Thr286 phosphorylation specific (pThr286), total cyclin D1, a phosphorylation specific ERK, and total ERK antibodies (B), or a pThr286, cyclin D1, a GSKα/β phosphorylation specific, and GSK3β antibodies (E). Panels C and F: Cell cycle distributions were shown. Panel G: Western blot analysis following transfection of various forms of HA-tagged cyclin D1 expression vectors in both NIH 3T3 mouse fibroblast (left) and HCT 116 colon cancer (right) cells. In lane 5 and 10, cells were treated with 5 μM of BIO for further 24 hours following transfection of the ΔD CD1 mutant.
as §1
To determine the contribution of ERK/MAPK to the stability of cyclin D1 in cancer cells, MAPK activity was inhibited with the MEK inhibitor U0126 (Favata et al., 1998. J Bio Chem. 273, 18623-32; Davies et al., 2000. Biochem J. 351, 95-105). Exponentially growing HCT 116 colon cancer cells were treated with U0126 for 30 minutes (FIG. 11, Panels A-C).
In contrast, no effect on phosphorylation status and stability of cyclin D1 protein through inhibition of GSK3α/β ([…], Panels D-F) were detected. […] Cycling HCT 116 colon cancer cells were treated with BIO for 24 hours (FIG. 11, Panels D-F). A phosphorylation specific antibody to GSK3α and β was used to measure their endogenous activities because phosphorylations of GSK3α at Tyr279 and GSK3β at Tyr216 are intramolecular autophosphorylation events in the cells. Thus, phosphorylation status reflects their kinase activities (Cole et al., 2004. Biochem J. 377, 249-55).

cyclin D1 = assay: Immunofluorescence, subcellular localization of cyclin D1 in HCT 116 cells; details: 5 μM BIO 24 hours, BrdU pulse
Description: Panels A-C: Immunofluorescence analysis. Nuclei were visualized with Hoechst dye. […] Panel A: Subcellular localization of cyclin D1. […] Panel B: Subcellular localization of the E3 ligase. […] Panel D: Immunoprecipitated-immunoblotting analysis. Panel E: Cell cycle distributions.
Immunofluorescence Analysis. Cultured cells on multiwell chamber slides (Nalge Nunc) were fixed with 4% paraformaldehyde in PBS and permeabilized in PBS containing 0.1% Triton X-100. Primary antibodies were diluted 1:100 in PBS containing 5% normal goat serum and applied for 2 hours. Proteins were detected either with mouse monoclonal antibodies or rabbit polyclonal antibodies followed by fluorescent substrate conjugated anti-mouse or anti-rabbit secondary antibody (Molecular Probes). For example, Cyclin D1 was detected either with mouse monoclonal cyclin D1 antibody (A-12, Santa Cruz) followed by fluorescent substrate conjugated anti-mouse or anti-rabbit secondary antibody (Molecular Probes). Nuclei were visualized using Hoechst 33258 (Molecular Probes). Fluorescence image was detected using LEICADMRD microscope (Leica).
Exponentially growing HCT 116 colon cancer cells were treated with the GSK3 inhibitor BIO for 24 hours. […] The subcellular distribution of cyclin D1 was visualized under the microscope (FIG. 12, Panel A). […]

cyclin D1 protein = assay: Pulse-chase analysis of cyclin D1 protein in HCT 116 cells; details: HCT 116; 5 μM BIO 24 hours
Description: FIG. 11 illustrates that ERK/MAPK is identified as the major kinase that is responsible for the stability of cyclin D1 protein. Panels A-F: Pulse-chase analysis of cyclin D1 protein in HCT 116 cells after exposure to the MEK inhibitor U0126 (A-C) or the GSK3 inhibitor BIO (D-F). Exponentially growing HCT 116 cells were treated with either DMSO or 10 μM of U0126 (A-C) for 30 minutes, or DMSO or 5 μM of BIO (D-F) for 24 hours. Panels A and D: Cells were pulse-labeled with ^35S-methionine for 1 hour. Subsequently these cells were chased with cold methionine for the indicated times, and then lysed respectively. Cyclin D1 was immunoprecipitated and then analyzed with SDS-PAGE. Autoradiography was performed. Levels of metabolically labeled-cyclin D1 were estimated by quantitative scanning using the Quantity One (Bio-Rad) software and blotted on the graph to determine the half-life of cyclin D1. […]
FIG. 18 illustrates that knockdown of FBXW8, or its partner CUL1 or CUL7 expression through siRNA stabilizes cyclin D1 expression in HCT 116 colon cancer cells. […] Cyclin D1 was immunoprecipitated and then analyzed with SDS-PAGE. Levels of metabolically labeled-cyclin D1 were estimated by quantitative scanning using the Quantity One software (Bio-Rad) and blotted on the graph to determine the half-life of cyclin D1 (D).
Pulse-Chase Analysis. […] Cyclin D1 was immunoprecipitated and then analyzed with SDS-PAGE. […]

O=C1Nc2cc(Br)ccc2/C1=C1/Nc2ccccc2/C1=N\O [BIO]
no significant difference: total cyclin D1 expression and its phosphorylated protein [1] | expression of total cyclin D1 and its phosphorylated protein [2] | subcellular localization of cyclin D1 (cyclin D1) | half-life of cyclin D1 protein (cyclin D1 protein)
